According to patent US9796733B2, “Imidazo-pyrazine derivatives useful as soluble guanylate cyclase activators” (Merck Sharp & Dohme Corp., priority 2014, dated 2017):

How the values were obtained:
sGC α1/β1 heterodimer = biological target: T1, sGC α1/β1 heterodimer (Homo sapiens, UniProt Q02108+Q02153); experiment: Cell-based sGC functional assay (CASA assay): cGMP generation in CHO-K1/sGC cells, HTRF detection; details: for Emax: CHO-K1, percent activation relative to standard Compound A in CHO-K1/sGC cells, read-out: % Act.; for EC50: inflection point (IP) of cGMP generation in CHO-K1/sGC cells, 4P fit, activity expressed as percentage of Compound A
T1 construct: expressed in transfected cells; host or cells: CHO-K1 (clone #7, CHO-K1/sGC)
T1 sequence (Q02108 1-690): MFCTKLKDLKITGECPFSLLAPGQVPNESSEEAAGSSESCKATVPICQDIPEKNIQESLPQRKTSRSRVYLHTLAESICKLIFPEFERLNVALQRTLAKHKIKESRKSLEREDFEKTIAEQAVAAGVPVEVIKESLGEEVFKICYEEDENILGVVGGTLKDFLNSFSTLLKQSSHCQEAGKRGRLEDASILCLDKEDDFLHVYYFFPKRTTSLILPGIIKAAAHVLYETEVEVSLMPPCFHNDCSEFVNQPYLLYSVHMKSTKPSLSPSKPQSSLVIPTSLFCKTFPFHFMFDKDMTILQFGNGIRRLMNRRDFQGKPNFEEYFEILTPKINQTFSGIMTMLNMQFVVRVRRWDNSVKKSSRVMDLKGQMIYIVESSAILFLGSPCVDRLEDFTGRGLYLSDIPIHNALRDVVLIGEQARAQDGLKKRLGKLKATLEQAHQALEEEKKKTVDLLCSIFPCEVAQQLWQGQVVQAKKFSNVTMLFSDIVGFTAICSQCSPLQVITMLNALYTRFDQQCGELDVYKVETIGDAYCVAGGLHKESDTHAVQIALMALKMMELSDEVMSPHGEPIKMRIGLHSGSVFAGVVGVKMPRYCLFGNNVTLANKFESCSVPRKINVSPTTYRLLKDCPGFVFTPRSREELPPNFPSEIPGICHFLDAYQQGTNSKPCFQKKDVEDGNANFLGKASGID
T1 sequence (Q02153 1-619): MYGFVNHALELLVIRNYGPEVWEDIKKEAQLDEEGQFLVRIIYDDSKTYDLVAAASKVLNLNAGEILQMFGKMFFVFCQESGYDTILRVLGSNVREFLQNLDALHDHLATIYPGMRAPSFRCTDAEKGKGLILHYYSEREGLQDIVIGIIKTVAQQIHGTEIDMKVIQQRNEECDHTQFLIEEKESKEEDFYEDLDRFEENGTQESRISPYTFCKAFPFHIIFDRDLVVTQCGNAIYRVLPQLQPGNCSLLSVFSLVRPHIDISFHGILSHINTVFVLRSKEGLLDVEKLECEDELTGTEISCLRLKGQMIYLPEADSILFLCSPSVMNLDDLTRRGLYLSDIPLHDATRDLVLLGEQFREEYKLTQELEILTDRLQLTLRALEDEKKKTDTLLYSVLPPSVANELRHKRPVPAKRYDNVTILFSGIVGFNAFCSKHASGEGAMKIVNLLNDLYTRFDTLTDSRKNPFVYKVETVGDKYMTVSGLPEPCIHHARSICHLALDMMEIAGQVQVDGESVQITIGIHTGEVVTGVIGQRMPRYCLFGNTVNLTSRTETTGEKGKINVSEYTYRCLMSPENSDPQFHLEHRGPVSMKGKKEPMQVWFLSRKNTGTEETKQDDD
Method in brief: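 Stable CHO-K1/sGC cells in EBSS buffer with 5 mM MgCl2, 0.05% BSA and 0.5 mM IBMX were incubated with compound (2.5% DMSO final) ±1 μM DETA-NO for 1 hr at 37° C. cGMP was measured by HTRF. Activation is expressed as % of reference HDA Compound A maximum, with IP and max fold induction from a 4P fit.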

[1] = tested on: Spontaneously hypertensive rats (SHR); experiment: Acute efficacy in spontaneously hypertensive rats (SHR): telemetry blood pressure lowering after a single oral dose; assay type: in vivo, rat
Method in brief: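 Male SHR carrying aortic telemetry implants (14-day recovery) received a single oral gavage of compound or vehicle (10% transcutol/20% Cremophor/70% water). Conscious blood pressure was sampled 30 s every 10 min and averaged hourly; change was taken against the prior-day vehicle baseline, reported as maximum peak SBP decrease at a given PO dose (mpk).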

Row | Compound | Emax (sGC α1/β1 heterodimer) | EC50 (sGC α1/β1 heterodimer) | Maximum peak decrease of systolic blood pressure (SBP) in SHR, Cat. ([1]; P.O. 0.3 mpk) | Maximum peak decrease of systolic blood pressure (SBP) in SHR, Cat. ([1]; P.O. 3.0 mpk) | Maximum peak decrease of systolic blood pressure (SBP) in SHR, Cat. ([1]; P.O. 1.0 mpk)
1 | CC1(C)C(=O)Nc2nc(-c3cn4ccnc4c(Cc4ccccc4F)n3)nc(N)c21 [Example 70, 4-amino-2-(8-(2-fluorobenzyl)imidazo[1,2-a]pyrazin-6-yl)-5,5-dimethyl-5H-pyrrolo[2,3-d]pyrimidin-6(7H)-one] | 109% | 21 nM | B (Category B=SBP in SHRs 20-40 mmHg) | – | –
2 | CC1(c2ccc(F)cc2)C(=O)Nc2nc(-c3cn4ccnc4c(CCC(F)(F)C(F)(F)F)n3)nc(N)c21 (single isomer, unassigned) [Example 222B, 4-amino-5-(4-fluorophenyl)-5-methyl-2-(8-(3,3,4,4,4-pentafluorobutyl)imidazo [1,2-a]pyrazin-6-yl)-5H-pyrrolo[2,3-d]pyrimidin-6(7H)-one] | 121% | 578 nM | – | B (Category B=SBP in SHRs 20-40 mmHg) | –
3 | CC1(c2ccc(F)cn2)C(=O)Nc2nc(-c3cn4ccnc4c(CCCC(F)(F)F)n3)nc(N)c21 (stereo not drawn) [Example 210B, 4-amino-5-(5-fluoropyridin-2-yl)-5-methyl-2-(8-(4,4,4-trifluorobutyl)imidazo[1,2-a]pyrazin-6-yl)-5H-pyrrolo[2,3-d]pyrimidin-6(7H)-one] | 97% | 40 nM | A (Category A=SBP in SHRs<20 mmHg) | – | –
4 | CC1(c2ccc(Cl)c(Cl)c2)C(=O)Nc2nc(-c3cn4ccnc4cn3)nc(N)c21 (stereo not drawn) [Example 138A, 4-amino-5-(3,4-dichlorophenyl)-2-(imidazo[1,2-a]pyrazin-6-yl)-5-methyl-5H-pyrrolo[2,3-d]pyrimidin-6(7H)-one] | 151% | 369 nM | – | B (Category B=SBP in SHRs 20-40 mmHg) | –
5 | Nc1nc(-c2cn3ccnc3c(CCC(F)(F)C(F)(F)F)n2)nc2c1C(c1ccc(Cl)cn1)(C1CC1)C(=O)N2 (stereo not drawn) [Example 245B, 4-amino-5-(5-chloropyridin-2-yl)-5-cyclopropyl-2-(8-(3,3,4,4,4-pentafluorobutyl)imidazo [1,2-a]pyrazin-6-yl)-5H-pyrrolo[2,3-d]pyrimidin-6(7H)-one] | 118% | 77 nM | – | – | C (Category C=SBP in SHRs>40 mmHg)
6 | CCCCc1nc(-c2nc(N)c3c(n2)NC(=O)C3(c2ccc(Cl)cc2F)C2CC2)cn2ccnc12 (stereo not drawn) [Example 369A, 4-amino-2-(8-butylimidazo[1,2-a]pyrazin-6-yl)-5-(4-chloro-2-fluorophenyl)-5-cyclopropyl-5H-pyrrolo[2,3-d]pyrimidin-6(7H)-one] | 109% | 13 nM | B (Category B=SBP in SHRs 20-40 mmHg) | – | –
7 | CC1(c2ccc(C3CC3)nn2)C(=O)Nc2nc(-c3cn4ccnc4c(CCC(F)(F)C(F)(F)F)n3)nc(N)c21 (stereo not drawn) [Example 253B, 4-amino-5-(6-cyclopropylpyridazin-3-yl)-5-methyl-2-(8-(3,3,4,4,4-pentafluorobutyl)imidazo [1,2-a]pyrazin-6-yl)-5H-pyrrolo[2,3-d]pyrimidin-6(7H)-one] | 83% | 51 nM | – | – | A (Category A=SBP in SHRs<20 mmHg)
8 | CC1(c2ccccc2)C(=O)Nc2nc(-c3cn4ccnc4c(CCC(F)(F)C(F)(F)F)n3)nc(N)c21 (stereo not drawn) [Example 232B, 4-amino-5-methyl-2-(8-(3,3,4,4,4-pentafluorobutyl)imidazo [1,2-a]pyrazin-6-yl)-5-phenyl-5H-pyrrolo[2,3-d]pyrimidin-6(7H)-one] | 60% | 17 nM | – | – | C (Category C=SBP in SHRs>40 mmHg)
9 | CC1(c2ccc(F)cc2)C(=O)Nc2nc(-c3cn4ccnc4c(Cc4cccc(F)c4)n3)nc(N)c21 (single isomer, unassigned) [Example 90A, 4-amino-2-(8-(3-fluorobenzyl)imidazo[1,2-a]pyrazin-6-yl)-5-(4-fluorophenyl)-5-methyl-5H-pyrrolo[2,3-d]pyrimidin-6(7H)-one] | 122% | 32 nM | C (Category C=SBP in SHRs>40 mmHg) | – | –
